Consider 15 compounds from patent US7223745B2, “Proteasome inhibitors and methods of using the same” (Cephalon, Inc., priority 2003, dated 2007).

The target of experiment [1] is T1, 20S Human Erythrocyte Proteasome (HEP) (Homo sapiens, UniProt P28074).
T1 construct: 20S Human Erythrocyte Proteasome (HEP), purchased from Immatics Biotechnologies Inc; purchased Immatics Biotechnologies Inc., Tubingen, Germany; host or cells: human erythrocytes (natural source)
Kind of experiment: Chymotrypsin-like activity of 20S Human Erythrocyte Proteasome (HEP), IC50 determination. Format: biochemical. The settings on record: Suc-LLVY-AMC substrate, 15 minutes preincubation at 37° C. The protocol: Proteasome chymotrypsin-like activity of compounds of the invention was assayed according to the following procedure.
In 96-well microtiter plates, 20S Human Erythrocyte Proteasome (HEP), purchased from Immatics Biotechnologies Inc., Tubingen, Germany was plated at 0.2 μg/mL (about 0.6 nM catalytic sites) in 0.04% SDS 20 mM Tris buffer. A fluorimetric substrate Suc-LLVY-AMC (succinyl-Leu-Leu-Val-Tyr-7-amido-4-methylcoumarin), purchased from Sigma Inc., St. Louis, Mo., USA was added to a final concentration of 100 μM from a stock solution of 10 mM in dimethylsulfoxide. Reaction volumes were 100 μl per well. After incubation for various periods of time at 37° C., the concentration of free AMC (aminomethylcoumarin) was determined on a Perkin Elmer HTS 7000 Plus microplate reader, excitation 370 nm and emission 465 nm. Proteasome activity was determined under conditions in which substrate hydrolysis increased linearly with time and the change in fluorescence signal was proportional to the concentration of free AMC.
IC50 values are typically defined as the concentration of a compound necessary to produce 50% inhibition of the enzyme's activity. IC50 values are useful indicators of the activity of a compound for its designated use. […] In some embodiments, the inhibitors show some specificity for HEP and the ratio of the IC50 for inhibition of bovine α-chymotrypsin versus the IC50 for inhibition of HEP, i.e, IC50 (α-Chymotripsin)/IC50 (HEP), is greater then about 100.
Inhibition of the chymotrypsin-like activity of HEP and of bovine α-chymotrypsin was determined by incubating the enzyme with various concentrations of putative inhibitors for 15 minutes at 37° C. (or room temperature for α-chymotrypsin) prior to the addition of substrate. Each experimental condition was evaluated in triplicate, and replicate experiments were performed for the inhibitors described herein.

The test system of experiment [2] is proteasome in Molt-4 cells. Kind of experiment: Cellular assay for chymotrypsin-like activity of proteasome in Molt-4 cell line, EC50 determination. Format: cell-based, human. As to conditions: MeOSuc-FLF-AFC substrate, 15 minutes preincubation at 37° C., read-out: MOLT4 (EC50). The protocol: The chymotrypsin-like activity of proteasome in Molt-4 cells (human leukemia) was assayed according to the following procedure. A brief description of the method was published previously (Harding et al., J. Immunol., 1995, 155, 1767).
Molt-4 cells were washed and resuspended in HEPES-buffered Saline (5.4 mM KCl, 120 mM NaCl, 25 mM Glucose, 1.5 mM MgSO4, 1 mM Na pyruvate, 20 mM Hepes) and plated in 96-well microtiter white plates to a final concentration of 6×10^6 cells/mL. Then various 5× proteasome inhibitor concentrations (or diluted DMSO for controls), prepared from 250×DMSO solutions by diluting 50-fold using HEPES-buffered saline, were added to the plate to a final 1× concentration. After 15 minutes incubation at 37° C., a fluorimetric cell permeable substrate (MeOSuc-FLF-AFC) (methoxysuccinyl-Phe-Leu-Phe-7-amido-4-trifluoromethylcoumarin) purchased from Enzyme Systems Products, catalogue number AFC-88, was added to each well at a final concentration of 25 μM from a stock solution of 20 mM in DMSO. Reaction volumes were 100 μl per well.
The concentration of free AFC was monitored every 1.5 min for 30 min ([…]) on a Polastar Optima, BMG Labtechnologies microplate reader, using an excitation wavelength of 390 nm and emission wavelength of 520 nm. Proteasome activity was determined under conditions in which substrate hydrolysis increased linearly with time and the change in fluorescent signal was proportional to the concentration of free AFC.
EC50 values are typically defined as the concentration of a compound required to produce an inhibition of the enzyme's activity halfway between the minimum and the maximum response (0% and 85–90% respectively for this assay). EC50 values are useful indicators of the activity of a compound for its designated use.
Inhibition of chymotrypsin-like activity of proteasome in Molt-4 cells was determined by incubating cells with various concentrations of putative inhibitors for 15 minutes at 37° C. prior to the addition of substrate. Each experimental condition was evaluated in triplicate, and replicate experiments were performed for the inhibitors described herein.

Molecules are shown by their SMILES. pEC50, pIC50: −log10 of the molar value.

As a reminder, the pIC50 is −log10 of the IC50, conventionally taken in molar units. For orientation: pEC50 means the negative decadic logarithm of the EC50, by convention in mol/L. `CC(C)C[C@H](NC(=O)[C@H](CCCNC(=N)N[N+](=O)[O-])NC(=O)CCCCCCCCCN1C(=O)c2ccccc2C1=O)B1O[C@@H]2C[C@@H]3C[C@@H](C3(C)C)[C@]2(C)O1` [Example 10, 10-(1,3-Dioxo-1,3-dihydro-isoindol-2-yl)-decanamide, N-[(1S)-1-[[[(1R)-1-[(3aS,4S,6S,7aR)-hexahydro-3a,5,5-trimethyl-4,6-methano-1,3,2-benzodioxaborol-2-yl]-3-methylbutyl]amino]carbonyl]-4-[[imino(nitroamino)methyl]amino]butyl]-;] gave a pIC50 in experiment [1] above 8.00. Moreover, the negative logarithm of the EC50 (pEC50) in experiment [2] is above 6.70.

In turn, `CC(C)C[C@H](NC(=O)[C@H](CCCNC(=N)N[N+](=O)[O-])NC(=O)CCCCCCCCCCCNC(=O)OC(C)(C)C)B1O[C@@H]2C[C@@H]3C[C@@H](C3(C)C)[C@]2(C)O1` [Example 11, 12-[(1,1-dimethylethoxy)carbonylamino]dodecanamide, N-[(1S)-1-[[[(1R)-1-[(3aS,4S,6S,7aR)-hexahydro-3a,5,5-trimethyl-4,6-methano-1,3,2-benzodioxaborol-2-yl]-3-methylbutyl]amino]earbonyl]-4-[[imino(nitroamino)methyl]amino]butyl]-] gave a pIC50 in experiment [1] above 8.00. In addition, in experiment [2], the pEC50 is above 6.70.

The compound `COC(=O)CCCCCCC(=O)N[C@@H](CCCNC(=N)N[N+](=O)[O-])C(=O)N[C@@H](CC(C)C)B1O[C@@H]2C[C@@H]3C[C@@H](C3(C)C)[C@]2(C)O1` [Example 12] gave a pIC50 in experiment [1] above 8.00. Further, the pEC50 in experiment [2] was above 5.70.

In turn, `CC(C)C[C@H](NC(=O)[C@H](CCCNC(=N)N[N+](=O)[O-])NC(=O)CCCCCCCCCCC#N)B1O[C@@H]2C[C@@H]3C[C@@H](C3(C)C)[C@]2(C)O1` [Example 13, 11-Cyanoundecanamide, N-[(1S)-1-[[[(1R)-1-[(3aS,4S,6S,7aR)-hexahydro-3a,5,5-trimethyl-4,6-methano-1,3,2-benzodioxaborol-2-yl]-3-methylbutyl]amino]carbonyl]-4-[[imino(nitroamino)methyl]amino]butyl]-.] had a pIC50 in experiment [1] above 8.00. For the same compound, the negative logarithm of the EC50 (pEC50) in experiment [2] was above 6.70.

The compound `CC(C)C[C@H](NC(=O)[C@H](CCCNC(=N)N[N+](=O)[O-])NC(=O)CCCCCCCCC#N)B1O[C@@H]2C[C@@H]3C[C@@H](C3(C)C)[C@]2(C)O1` [Example 14, 9–Cyanononamide, N-[(1S)-1-[[[(1R)-1-[(3aS,4S,6S,7aR)-hexahydro-3a,5,5-trimethyl-4,6-methano-1,3,2-benzodioxaborol-2-yl]-3-methylbutyl]amino]carbonyl]-4-[[imino(nitroamino)methyl]amino]butyl]] had a negative logarithm of the IC50 (pIC50) in experiment [1] above 8.00. In addition, the negative logarithm of the EC50 (pEC50) in experiment [2] is above 6.70.

In experiment [1], `CC(=O)NCCCCCC(=O)N[C@@H](CCCNC(=N)N[N+](=O)[O-])C(=O)N[C@@H](CC(C)C)B1O[C@@H]2C[C@@H]3C[C@@H](C3(C)C)[C@]2(C)O1` [Example 15, 6-(Acetylamino)hexanamide, N-[(1S)-1-[[[(1R)-1-[(3aS,4S,6S,7aR)-hexahydro-3a,5,5-trimethyl-4,6-methano-1,3,2-benzodioxaborol-2-yl]-3-methylbutyl]amino]carbonyl]-4-[[imino(nitroamino)methyl]amino]butyl]] showed a pIC50 above 7.00.

In experiment [1], `CC(C)C[C@H](NC(=O)[C@H](CCCNC(=N)N[N+](=O)[O-])NC(=O)CCCCCCCCCCCN1C(=O)c2ccccc2C1=O)B1O[C@@H]2C[C@@H]3C[C@@H](C3(C)C)[C@]2(C)O1` [Example 16] gave a pIC50 above 8.00. For the same compound, the pEC50 in experiment [2] was above 6.70.

Turning to `CCS(=O)(=O)NCCCCCC(=O)N[C@@H](CCCNC(=N)N[N+](=O)[O-])C(=O)N[C@@H](CC(C)C)B1O[C@@H]2C[C@@H]3C[C@@H](C3(C)C)[C@]2(C)O1` [Example 17, 6-(Ethanesulfonylamino)hexanamide, N-[(1S)-1-[[[(1R)-1-[(3aS,4S,6S,7aR)-hexahydro-3a,5,5-trimethyl-4,6-methano-1,3,2-benzodioxaborol-2-yl]-3-methylbutyl]amino]carbonyl]-4-[[imino(nitroamino)methyl]amino]butyl]], the negative logarithm of the IC50 (pIC50) in experiment [1] is above 7.00. For the same compound, in experiment [2], the pEC50 was below 5.00.

The compound `CC(C)C[C@H](NC(=O)[C@H](CCCNC(=N)N[N+](=O)[O-])NC(=O)CCCCCNS(=O)(=O)c1ccccc1)B1O[C@@H]2C[C@@H]3C[C@@H](C3(C)C)[C@]2(C)O1` [Example 18, 6-Benzenesulfonylaminohexanamide, N-[(1S)-1-[[[(1R)-1-[(3aS,4S,6S,7aR)-hexahydro-3a,5,5-trimethyl-4,6-methano-1,3,2-benzodioxaborol-2-yl]-3-methylbutyl]amino]carbonyl]-4-[[imino(nitroamino)methyl]amino]butyl]] showed a pIC50 in experiment [1] above 8.00. Besides, the negative logarithm of the EC50 (pEC50) in experiment [2] was above 5.70.

For the compound `CCS(=O)(=O)NCCCCCCCC(=O)N[C@@H](CCCNC(=N)N[N+](=O)[O-])C(=O)N[C@@H](CC(C)C)B1O[C@@H]2C[C@@H]3C[C@@H](C3(C)C)[C@]2(C)O1` [Example 19], the pIC50 in experiment [1] was above 8.00. Also, the pEC50 in experiment [2] was above 6.70.

In experiment [1], `CC(C)C[C@H](NC(=O)[C@H](CCCNC(=N)N[N+](=O)[O-])NC(=O)CCCCCCCCCCC#N)B(O)O` [Example 20, Boronic acid, [(1R)-1-[[(2S)-5-[[imino(nitroamino)methyl]amino]-2-[(11-Cianoundecanoyl)amino]-1-oxopentyl]amino]-3-methylbutyl]] gave a pIC50 above 8.00. In addition, the pEC50 in experiment [2] was above 5.00.

On to `CC(C)C[C@H](NC(=O)[C@H](CCCNC(=N)N[N+](=O)[O-])NC(=O)CCCCCCCCC#N)B(O)O` [Example 21, Boronic acid, [(1R)-1-[[(2S)-5-[[imino(nitroamino)methyl]amino]-2-[(9-Cyanononanoyl)amino]-1-oxopentyl]amino]-3-methylbutyl]], for which, in experiment [1], the pIC50 is above 8.00. Moreover, in experiment [2], the pEC50 is below 5.00.

In turn, `COC(=O)CCCCCCC(=O)N[C@@H](CCCNC(=N)N[N+](=O)[O-])C(=O)N[C@@H](CC(C)C)B(O)O` [Example 22, Boronic acid, [(1R)-1-[[(2S)-5-[[imino(nitroamino)methyl]amino]-2-[[7-(methoxycarbonyl)heptanoyl]amino]-1-oxopentyl]amino]-3-methylbutyl]] gave a pIC50 in experiment [1] above 8.00. For the same compound, the pEC50 in experiment [2] was below 5.00.

Take `CC(C)C[C@H](NC(=O)[C@H](CCCNC(=N)N[N+](=O)[O-])NC(=O)CCCCCCCCCN1C(=O)c2ccccc2C1=O)B(O)O` [Example 23]: the pIC50 in experiment [1] was above 8.00. The pEC50 in experiment [2] was above 6.70.

Compound `CC(=O)NCCCCCC(=O)N[C@@H](CCCNC(=N)N[N+](=O)[O-])C(=O)N[C@@H](CC(C)C)B(O)O` [Example 24, Boronic acid, [(1R)-1-[[(2S)-5-[[imino(nitroamino)methyl]amino]-2-[[6-(acetylamino)hexanoyl]amino]-1-oxopentyl]amino]-3-methylbutyl]] had a pIC50 in experiment [1] above 8.00. The pEC50 in experiment [2] was below 5.00.
